Experimental data from paper PMC7351617 (Journal of neurochemistry, 2020).
Read-outs that look alike come from different tables or passages of the source.

What was measured:
[1] = test system: rat adrenal chromaffin cells (native α3β4* / α3β2β4 nAChRs); details: SD
[2] = test system: α7 nAChRs of rat adrenal chromaffin cells; type: cell-based

CC(=O)OCC[N+](C)(C)C [ACh, Acetylcholine (ACh) chloride]
ACh-evoked currents [1]: −2730 ± 1789 pA
ACh-evoked currents ([1]; n=7): −3992 ± 1649 pA

COc1cc(OC)c(NC(=O)Nc2cc(C)on2)cc1Cl [PNU120596]
cells with detectable PNU282987-evoked currents in the presence of PNU120596 [2]: 24/28
PNU282987-evoked current amplitude in the presence of PNU120596 ([2]; SD): −1275 ± 1668 pA
increase in PNU282987-evoked current amplitudes in the presence of PNU120596 ([2]; SD): 54 ± 99 fold

Cl.O=C(N[C@H]1CN2CCC1CC2)c1ccc(Cl)cc1 [PNU282987, N-[(3R)-1-Azabicyclo[2.2.2]oct-3-yl]-4-chlorobenzamide hydrochloride]
PNU282987-evoked current amplitudes in some cells (relatively small) [2]: 10–20 pA
cells in which PNU282987 evoked currents [2]: 18/28
PNU282987-evoked current amplitude before PNU120596 ([2]; SD): −29 ± 38 pA
